Test results published in PubChem BioAssay (NCI).
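1) Cells in 96-well plates. 2) Compound, 48 h, 5 concentrations. 3) Linear interpolation between surrounding doses. 4) Unreached endpoint = highest concentration. The concentration for 50% growth inhibition is given as GI50. At the TGI there is no net growth.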

What was measured:
Assay in all cases: NCI-60 cell line screen, 48 h
[1] = system: 786-0 renal
[2] = system: A498 renal
[3] = system: A549 NSCLC
[4] = system: ACHN renal
[5] = system: BT-549 breast
[6] = system: CAKI-1 renal
[7] = system: CCRF-CEM leukemia
[8] = system: COLO 205 colon
[9] = system: DU-145 prostate
[10] = system: HCC-2998 colon
[11] = system: HCT-116 colon
[12] = system: HCT-15 colon
[13] = system: HL-60(TB) leukemia
[14] = system: HOP-62 NSCLC
[15] = system: HOP-92 NSCLC
[16] = system: HS 578T breast
[17] = system: HT29 colon
[18] = system: IGROV1 ovarian
[19] = system: K-562 leukemia
[20] = system: KM12 colon
[21] = system: LOX IMVI melanoma
[22] = system: M14 melanoma
[23] = system: MALME-3M melanoma
[24] = system: MCF7 breast
[25] = system: MDA-MB-231 breast
[26] = system: MDA-MB-435
[27] = system: MOLT-4 leukemia
[28] = system: NCI-H226 lung
[29] = system: NCI-H23 lung
[30] = system: NCI-H460 lung
[31] = system: NCI-H522 lung
[32] = system: NCI/ADR-RES ovarian
[33] = system: OVCAR-3 ovarian
[34] = system: OVCAR-4 ovarian
[35] = system: OVCAR-5 ovarian
[36] = system: OVCAR-8 ovarian
[37] = system: PC-3 prostate
[38] = system: RPMI-8226 leukemia
[39] = system: RXF 393 renal
[40] = system: SF-268 CNS
[41] = system: SF-295 CNS
[42] = system: SF-539 CNS
[43] = system: SK-MEL-2 melanoma
[44] = system: SK-MEL-28 melanoma
[45] = system: SK-MEL-5 melanoma
[46] = system: SK-OV-3 ovarian
[47] = system: SN12C renal
[48] = system: SNB-19 CNS
[49] = system: SNB-75 CNS
[50] = system: SR leukemia
[51] = system: SW-620 colon
[52] = system: T-47D breast
[53] = system: TK-10 renal
[54] = system: U251 CNS
[55] = system: UACC-257 melanoma
[56] = system: UACC-62 melanoma
[57] = system: UO-31 renal

SMILES: Fc1ccc(-c2c(-c3ccncc3)[nH]c3nccnc23)cc1
- GI50 [1]: 11.3 µM
- TGI [1]: > 25 µM
- GI50 [2]: 4.76 µM
- TGI [2]: > 23.2 µM
- GI50 [3]: 7.35 µM
- TGI [3]: > 25 µM
- GI50 [4]: 3.05 µM
- TGI [4]: > 25 µM
- GI50 [5]: > 15.2 µM
- TGI [5]: > 25 µM
- GI50 [6]: 4.52 µM
- TGI [6]: > 19.9 µM
- GI50 [7]: 24.6 µM
- TGI [7]: > 25 µM
- GI50 [8]: 5.86 µM
- TGI [8]: > 25 µM
- GI50 [9]: 7.32 µM
- TGI [9]: > 22 µM
- GI50 [10]: 12 µM
- TGI [10]: > 25 µM
- GI50 [11]: 6.39 µM
- TGI [11]: > 22.1 µM
- GI50 [12]: 8.28 µM
- TGI [12]: > 25 µM
- GI50 [13]: 16.3 µM
- TGI [13]: > 25 µM
- GI50 [14]: > 15.3 µM
- TGI [14]: > 25 µM
- GI50 [15]: > 25 µM
- TGI [15]: > 25 µM
- GI50 [16]: 8.03 µM
- TGI [16]: > 25 µM
- GI50 [17]: 6.41 µM
- TGI [17]: > 25 µM
- GI50 [18]: 16.2 µM
- TGI [18]: > 25 µM
- GI50 [19]: > 25 µM
- TGI [19]: > 25 µM
- GI50 [20]: 8.92 µM
- TGI [20]: > 25 µM
- GI50 [21]: 11.1 µM
- TGI [21]: > 25 µM
- GI50 [22]: > 18.7 µM
- TGI [22]: > 25 µM
- GI50 [23]: > 9.39 µM
- TGI [23]: > 17.4 µM
- GI50 [24]: 7.39 µM
- TGI [24]: > 25 µM
- GI50 [25]: > 14.4 µM
- TGI [25]: > 25 µM
- GI50 [26]: 11.6 µM
- TGI [26]: > 25 µM
- GI50 [27]: > 25 µM
- TGI [27]: > 25 µM
- GI50 [28]: 6.76 µM
- TGI [28]: > 25 µM
- GI50 [29]: > 17.4 µM
- TGI [29]: > 25 µM
- GI50 [30]: 7.11 µM
- TGI [30]: > 21.3 µM
- GI50 [31]: > 11.1 µM
- TGI [31]: > 21.6 µM
- GI50 [32]: 16.1 µM
- TGI [32]: > 25 µM
- GI50 [33]: 10.3 µM
- TGI [33]: > 25 µM
- GI50 [34]: > 16.7 µM
- TGI [34]: > 25 µM
- GI50 [35]: 11.2 µM
- TGI [35]: > 25 µM
- GI50 [36]: 10.4 µM
- TGI [36]: > 25 µM
- GI50 [37]: > 25 µM
- TGI [37]: > 25 µM
- GI50 [38]: > 25 µM
- TGI [38]: > 25 µM
- GI50 [39]: 3.69 µM
- TGI [39]: 9.8 µM
- GI50 [40]: 10.9 µM
- TGI [40]: > 25 µM
- GI50 [41]: > 15.1 µM
- TGI [41]: > 25 µM
- GI50 [42]: 9.94 µM
- TGI [42]: > 25 µM
- GI50 [43]: 13.6 µM
- TGI [43]: > 25 µM
- GI50 [44]: 16.2 µM
- TGI [44]: > 25 µM
- GI50 [45]: 11 µM
- TGI [45]: > 25 µM
- GI50 [46]: 8.25 µM
- TGI [46]: > 25 µM
- GI50 [47]: 7.84 µM
- TGI [47]: > 25 µM
- GI50 [48]: > 20.3 µM
- TGI [48]: > 25 µM
- GI50 [49]: 2.66 µM
- TGI [49]: > 25 µM
- GI50 [50]: 8.79 µM
- TGI [50]: > 25 µM
- GI50 [51]: 13.6 µM
- TGI [51]: > 25 µM
- GI50 [52]: 7.09 µM
- TGI [52]: > 25 µM
- GI50 [53]: 5.94 µM
- TGI [53]: > 21.6 µM
- GI50 [54]: 12.5 µM
- TGI [54]: > 25 µM
- GI50 [55]: > 20 µM
- TGI [55]: > 25 µM
- GI50 [56]: 6.33 µM
- TGI [56]: > 25 µM
- GI50 [57]: 3.43 µM
- TGI [57]: > 25 µM
